According to paper PMC5298233, “Substrate-analogous inhibitors exert antimalarial action by targeting the Plasmodium lactate transporter PfFNT at nanomolar scale” (PLoS Pathogens, 2017):
Where two headings read alike, the source gives them in different places.

Assays:
[1] = target: T1, PfFNT (Plasmodium falciparum, UniProt O77389); experiment: cell-based
[2] = test system: P. falciparum 3D7; experiment: Viability of cultured P. falciparum parasites (FACS parasitemia); format: cell-based, Plasmodium falciparum; settings: for IC50: Plasmodium falciparum, 3D7, 48 h, read-out: IC50 (P. falciparum 3D7)
[3] = target: T1, PfFNT; settings: read-out: IC50 on PfFNT; cited from earlier work
[4] = target: T1, PfFNT; experiment: cell-based; settings: for hit identification: inhibition of PfFNT transport at 10 μM: 1 mM substrate gradient, compound added 20 min prior; for inhibition at 10 µM: read-out: % Inhib.
[5] = target: T2, BbFNT (Babesia bovis, UniProt A7AX62); experiment: cell-based; settings: wildtype BbFNT; read-out: IC50 (BbFNT / yeast)
T2 sequence (A7AX62 1-279): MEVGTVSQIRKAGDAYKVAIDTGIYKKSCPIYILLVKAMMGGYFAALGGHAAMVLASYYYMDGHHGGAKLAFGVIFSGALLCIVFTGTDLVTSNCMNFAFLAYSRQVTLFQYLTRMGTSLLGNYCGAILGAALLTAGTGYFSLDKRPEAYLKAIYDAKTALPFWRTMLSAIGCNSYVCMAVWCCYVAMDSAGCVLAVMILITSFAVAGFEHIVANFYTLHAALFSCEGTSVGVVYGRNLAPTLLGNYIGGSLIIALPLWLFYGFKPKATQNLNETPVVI

[6] = target: T3, rat MCT1 (Rattus norvegicus, UniProt P53987); experiment: L-lactate transport inhibition of MCT1 expressed in yeast; format: cell-based
T3 sequence (P53987 1-494): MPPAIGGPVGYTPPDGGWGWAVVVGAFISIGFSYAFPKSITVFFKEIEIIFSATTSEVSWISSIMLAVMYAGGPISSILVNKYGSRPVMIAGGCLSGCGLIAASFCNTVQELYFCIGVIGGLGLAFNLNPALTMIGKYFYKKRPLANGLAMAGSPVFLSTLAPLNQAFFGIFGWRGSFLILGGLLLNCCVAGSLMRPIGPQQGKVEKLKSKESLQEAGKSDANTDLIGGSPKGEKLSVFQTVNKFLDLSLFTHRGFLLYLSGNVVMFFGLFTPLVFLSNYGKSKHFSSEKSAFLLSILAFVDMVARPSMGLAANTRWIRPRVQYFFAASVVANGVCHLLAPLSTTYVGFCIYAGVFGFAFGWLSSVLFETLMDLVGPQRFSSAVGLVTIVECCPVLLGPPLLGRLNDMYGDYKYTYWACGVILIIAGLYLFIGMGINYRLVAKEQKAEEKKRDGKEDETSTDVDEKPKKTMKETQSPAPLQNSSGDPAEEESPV

[7] = target: T4, BbFNT S93G (Babesia bovis, UniProt A7AX62, S93G); experiment: cell-based; settings: read-out: IC50 (BbFNT S93G / yeast)
T4 sequence (A7AX62 1-279 S93G): T2 sequence (A7AX62 1-279)

[8] = test system: MMV007839 resistant 3D7 parasites; experiment: microbe, parasite or virus in culture; format: cell-based, Plasmodium falciparum; settings: for IC50: Plasmodium falciparum, 3D7, read-out: IC50 (P. falciparum resist.)
[9] = target: T1, PfFNT; settings: earlier determined; read-out: affinity of lactate to PfFNT (Km); cited from earlier work
[10] = IC50 (PfFNT / yeast), 20 min incubation with compound, 1 mM L-lactate
[11] = IC50 (PfFNT / yeast), half-maximal lactate transport rate, 20 min treatment

T1 sequence (O77389 whole entry): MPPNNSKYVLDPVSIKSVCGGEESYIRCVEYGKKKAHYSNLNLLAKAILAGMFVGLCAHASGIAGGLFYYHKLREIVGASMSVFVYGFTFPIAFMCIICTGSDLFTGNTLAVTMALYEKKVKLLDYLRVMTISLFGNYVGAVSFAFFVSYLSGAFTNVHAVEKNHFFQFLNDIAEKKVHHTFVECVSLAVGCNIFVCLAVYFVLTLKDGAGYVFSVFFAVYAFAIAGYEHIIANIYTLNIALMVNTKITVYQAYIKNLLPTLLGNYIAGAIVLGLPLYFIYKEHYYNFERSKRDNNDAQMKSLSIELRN

SMILES | IC50 [1, 10] [µM] | IC50 [2] [µM] | further results
COc1ccc2c(c1)OC(C)(C)CC2=O [[2]] | > 1000 |  | 
COc1ccc2c(c1)OC(O)(C(F)(F)C(F)(F)C(F)(F)F)CC2=O (stereo not drawn) [[10]] | 0.25 ± 0.02 | 0.47 ± 0.1 | 
O=C1CC(O)(C(F)(F)C(F)(F)C(F)(F)C(F)(F)F)Oc2ccccc21 (stereo not drawn) [[11]] | 4.9 ± 0.2 |  | 
O=C(O)c1cccnc1Nc1cccc(C(F)(F)F)c1 [niflumic acid] |  |  | IC50 [3]: > 100 µM
COc1ccc2c(c1)OC(O)(C(F)(F)F)CC2=O (stereo not drawn) [[8]] | 1.1 ± 0.1 |  | 
COc1ccc2c(c1)C(=O)CC(O)(C(F)F)O2 (stereo not drawn) [[4]] | > 1000 |  | 
CC(=O)C=C(O)C(F)(F)C(F)(F)F [Pharmacophore, 5,5,6,6,6-pentafluoro-4-hydroxyhex-3-en-2-one] | 1.9 |  | 
CC(C)Oc1ccc2c(c1)OC(O)(C(F)(F)C(F)(F)F)CC2=O (stereo not drawn) [[14]] | 0.4 ± 0.01 | 0.1 | 
O/N=C1\CC(O)(C(F)(F)F)Oc2ccc(Cl)cc21 (stereo not drawn) [[6]] | 315 ± 63 |  | 
O=C1CC(O)(C(F)(F)C(F)(F)F)Oc2cc(Cl)ccc21 (stereo not drawn) [[12]] | 0.12 ± 0.01 | 0.28 ± 0.05 | 
CCOc1ccc2c(c1)OC(O)(C(F)(F)C(F)(F)F)CC2=O (stereo not drawn) [[13]] | 0.24 ± 0.01 | 0.05 | 
COc1ccc2c(c1)OC(O)(C(F)(F)C(F)(F)F)CC2=O (stereo not drawn) [MMV007839] |  |  | Ki [1]: 1.4 µM; IC50 [1, 11]: 0.17 µM; IC50 ([1]; IC50 (PfFNT / yeast; 24 h treatment), compound added 24 h before the assay, last 18 h at 4°C): 0.015 µM; higher affinity than the physiological substrate lactate ([1]; Ki versus lactate Km): > 60,000 times; re-gain of PfFNT transport activity after removal of inhibitor (dissociation) ([1]; full and half-maximal inhibition, wash-out, up to 2 h): does not re-gain activity within 2 h; hit identification: inhibition of PfFNT transport at 10 μM [4]: fully blocked; inhibition at 10 µM [4]: 99.1%; IC50 [5]: 150 µM; IC50 [6]: 55 µM; IC50 [7]: 11 µM; reduction of parasite growth ([2]; incubation at IC90 over night): 70%; reduction of parasite growth ([2]; short period incubation at IC90 for 1 h): 17%; IC50 [8]: 35 µM
O=C1CC(O)(C(F)(F)C(F)F)Oc2ccc(Cl)cc21 (stereo not drawn) [[3]] | 48 ± 2 |  | 
COc1ccc(C(=O)/C=C(\O)C(F)(F)C(F)(F)F)cc1 [BH-296] | 0.14 ± 0.01 | 3.6 ± 0.2 | less efficient in P. falciparum culture ([2]; compared with PfFNT block in yeast / MMV007839): 25 times; shift in IC50, resistant versus non-resistant parental parasites [8]: 2.5 fold; IC50 [8]: 8.6 µM
O=C1CC(O)(C(F)F)Oc2ccccc21 (stereo not drawn) [[7]] | 280 ± 32 |  | 
CCO/C(=C\C(=O)c1ccc(OC)cc1)C(F)(F)C(F)(F)F [BH-296 ethyl ester prodrug] |  | 9.3 ± 1.4 | 
COc1ccc2c(=O)cc(C(F)(F)C(F)(F)F)oc2c1 [[1]] | > 1000 |  | 
CC(O)C(=O)O (stereo not drawn) [lactate] |  |  | Km [9]: 87 mM
COc1ccc2c(c1)OC(O)(C(F)(F)C(F)(F)F)C(C)C2=O (stereo not drawn) [[5]] | 145 ± 8 |  | 
O=C1CC(O)(C(F)(F)C(F)(F)F)Oc2cc(OCc3ccccc3)ccc21 (stereo not drawn) [[15]] | 0.88 ± 0.03 |  | 
COc1ccc2c(c1)OC(O)(C(F)(F)C(F)F)CC2=O (stereo not drawn) [[9]] | 0.36 ± 0.4 |  | 
O=C1CC(O)(C(F)(F)C(F)(F)F)Oc2ccccc21 (stereo not drawn) [MMV000972] |  | 1.7 | IC50 [1, 11]: 0.17 µM; hit identification: inhibition of PfFNT transport at 10 μM [4]: fully blocked; inhibition at 10 µM [4]: 102%
